Data as given in patent US9234025B2, “Extracellular allosteric inhibitor binding domain from a tyrosine kinase receptor” (SANOFI, priority 2009, dated 2016).

Key:
FGFR2 = assay: FRS2, Erk1/2 and PLCγ phosphorylation in FGFR2-transfected HEK293 cells (western blot); assay type: cell-based, human; conditions: compound at 1 μM
Experimental: HEK293 cells were either transiently of stably transfected (using FuGENE 6, Roche) with hFGFR2IIIca or hFGFR2IIIca-Y328D cloned in pcDNA3 (Invitrogen). Stably transfected cells were grown in G418 (400 μg/ml) containing medium. Before stimulation, the cells were starved overnight in DMEM (0% serum), and pre-incubated with […] at the required concentration. The cells were subsequently stimulated with FGF2 (concentration between 0.5-10 ng/ml) for 5 min at 37° C. with or without SSR or SU5402 at 1 μM. After washing with ice-cold phosphate-buffered saline containing phosphatase inhibitors (Roche), cells were lysed in RIPA buffer (Tris 30 mM HCl pH 7.5, 150 mM NaCl, 1 mM EDTA, 1% triton-X, 0.5% w/v deoxycholate, containing phophatase and protease inhibitors as described by the manufacturer (Roche)). Cell lysates were centrifuged at 12,000 g for 10 min, and the supernatants were collected. Proteins were separated on Novex polyacrylamide gels (Invitrogen, Carlsbad, Calif.) and subsequently transferred onto Hybond ECL nitrocellulose membranes (Amersham Pharmacia). Following incubation with 5% non-fat milk powder in PBS, the membranes were incubated overnight at 4° C. with the following antibodies: phospho-ERK1/2 (CST:9101), phospho-FRS2 (CST:3861), phospho-PLCγ (CST:2821) and FGFR2 (F0300, Sigma).
In order to evaluate SSR effect on FGFR-controlled phosphor-signalling, HEK293 cells have been transfected with FGFR2 and the two main pathways following FGFR autophosphorylation, PLCγ and FRS2, have been studied by western blot in comparison with a published FGFR tyrosine kinase inhibitor SU5402 described to inhibit FGFR-dependent FRS2 and PLCγ cascades (Zhen et al., Oncogene 2007). In such cells, FGF induces FRS2, Erk1/2 and PLCγ phosphorylation. […] More generally, these differences in phosphorylation can be used as reporter to evaluate allosteric modulators.

PANC02 cells [1] = assay: PANC02 proliferation; assay type: cell-based; conditions: 100 nM SSR; 100 ng/ml FGF7 with or without VEGF; FGFR2-IIIb
Experimental: (§1) Cell proliferation was analysed on exponentially growing cells that were starved for 16 hours in 100 μl RPMI 1640 (Invitrogen, 32404-014) with 0.2% FBS (Hyclone, SH30070.03), 2 mM glutamine, MEM non-essential amino-acid 1× (Gibco, 11140-035), MEM sodium pyruvate 1× (Gibco, 11360-039) and seeded at 4,000 cells/well in 96-well microplates. After exposure to mitogens and/or SSR for 72 hours, cell proliferation was assessed with the use of the CellTiter 96 AQueous One Solution Cell Proliferation Assay (Promega, Madison, Wis., USA) according to manufacturer's instructions. Cell migration was assessed by a modified Boyden chamber assay, by using 24-well inserts containing 8 μm pore size transwell permeable supports with a polycarbonate membrane (Costar, Corning Inc.). Exponentially growing cells were starved in 0.2% FBS containing medium for 16 hours and resuspended at 5×10^5 cells/ml in the same low serum medium. 100 μl of the cell suspension were seeded in the upper chamber, while chemoattractants and/or SSR were placed in the lower chamber. 10% FBS containing medium was used a positive control. After 6 hours incubation at 37° C., cells on the upper side of the membrane were scraped using a cotton swab, while migrated cells on the lower surface were fixed with 4% formaldehyde and nuclei stained with DAPI for quantification.

PANC02 cells [2] = assay: PANC02 migration; assay type: cell-based; conditions: 100 nM SSR; 100 ng/ml FGF7 with or without VEGF; FGFR2-IIIb
Experimental: as §1

HUVEC = HUVEC in vitro angiogenesis; assay type: cell-based, human; conditions: low nanomolar range
Experimental: Collagen/matrigel gels are prepared by distributing in each well of a chamberslide (Biocoat Cellware collagen, Type I, 8-well culturesides: Becton dickinson 354630), 160 μl of 1/6 diluted matrigel (Growth factor reduced Matrigel: Becton dickinson 356230) in collagen I (rat Tail collagene, type I: Becton dickinson 354236). Polymerisation occurs at 37° C. for 1 h. Then, 15.10^3 HUVEC are added per well in 400 μl EBM medium (Clonetics C3121)+2% FCS+hEGF 10 μg/ml. Endothelial cells are stimulated with 10 ng/ml of FGF2 (R&D, 133-FB-025), FGF4 (R&D, 235-F4-025) or FGF19 (R&D, 969-FG-025) for 24 h at 37° C. in a CO2 chamber. Then, total length of pseudotubules is quantified using a bioimaging system (Imagenia Biocom, Courtaboeuf, France).

## COc1c(C)c(C(=O)c2ccc(N)c(C(=O)[O-])c2)n2ccccc12.[Na+] [SSR]
FGFR2
  FGF-induced FRS2 phosphorylation: only inhibits FRS2 pathway
  FGF-induced PLCγ phosphorylation: doesn't inhibit
PANC02 cells [1]
  FGF7-induced PANC02 proliferation: blocked
PANC02 cells [2]
  FGF7-induced PANC02 migration: blocked
HUVEC
  FGF2-induced HUVEC in vitro angiogenesis: blocks FGF2-induced HUVEC angiogenesis
